{"source": "paper PMC5104480", "about": "(PLoS ONE, 2016)", "key": {"[1]": {"details": "cited from earlier work"}, "[2]": {"target": "T1, HLMs, UGT1A1, UGT1A6 and UGT1A9 (Homo sapiens, UniProt O60656)", "T1 sequence (O60656 26-530)": "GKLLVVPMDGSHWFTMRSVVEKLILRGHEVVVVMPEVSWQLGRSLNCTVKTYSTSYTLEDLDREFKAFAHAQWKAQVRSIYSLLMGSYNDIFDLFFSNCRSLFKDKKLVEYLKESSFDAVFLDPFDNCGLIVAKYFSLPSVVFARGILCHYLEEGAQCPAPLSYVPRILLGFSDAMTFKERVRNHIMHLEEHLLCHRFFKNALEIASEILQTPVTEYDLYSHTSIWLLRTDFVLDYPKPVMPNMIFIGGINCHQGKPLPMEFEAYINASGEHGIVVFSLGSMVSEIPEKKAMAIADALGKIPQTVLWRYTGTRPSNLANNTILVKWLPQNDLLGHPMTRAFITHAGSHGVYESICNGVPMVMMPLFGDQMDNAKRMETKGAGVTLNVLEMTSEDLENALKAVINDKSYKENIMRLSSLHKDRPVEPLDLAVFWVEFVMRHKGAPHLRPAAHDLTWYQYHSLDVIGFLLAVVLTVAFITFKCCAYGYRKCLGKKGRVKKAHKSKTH", "details": "HLMs and UGT1A9, compared with control", "description": "(§1) The protein concentrations of the HLMs and expressed UGTs were 0.0021–0.0106 mg protein/mL. All of the incubations were run at 37°C for 30 min, and the way of pretreated and determined samples were as discribed above."}, "[3]": {"tested_on": "HepG2 cells", "assay": "MTT assay, HepG2 cells, with and without Ko143", "type": "cell-based", "description": "The cells were further incubated at 37°C with 5% CO2 for 48 h. […] The supernatants were discarded, and 150 μL of dimethyl sulfoxide was added to each well. The plates were shaken for 10 min at room temperature, and then, the stained formazan product was determined at 570 nm with a multimode plate reader."}, "[4]": {"tested_on": "A549 cells", "assay": "MTT assay, A549 cells, with and without Ko143", "type": "cell-based", "description": "The cells were further incubated at 37°C with 5% CO2 for 48 h. The culture medium was removed and replaced with 100 μL 0.5 mg/mL 3-(4, 5-dimethylthiozol-2-yl)-3, 5-dipheryl tetrazolium bromide (MTT) solution and incubated at 37°C for 4 h. The supernatants were discarded, and 150 μL of dimethyl sulfoxide was added to each well. The plates were shaken for 10 min at room temperature, and then, the stained formazan product was determined at 570 nm with a multimode plate reader."}, "[5]": {"target": "T2, HLMs, UGT1A1, UGT1A6 and UGT1A9 (Homo sapiens, UniProt P22309)", "T2 sequence (P22309 26-533)": "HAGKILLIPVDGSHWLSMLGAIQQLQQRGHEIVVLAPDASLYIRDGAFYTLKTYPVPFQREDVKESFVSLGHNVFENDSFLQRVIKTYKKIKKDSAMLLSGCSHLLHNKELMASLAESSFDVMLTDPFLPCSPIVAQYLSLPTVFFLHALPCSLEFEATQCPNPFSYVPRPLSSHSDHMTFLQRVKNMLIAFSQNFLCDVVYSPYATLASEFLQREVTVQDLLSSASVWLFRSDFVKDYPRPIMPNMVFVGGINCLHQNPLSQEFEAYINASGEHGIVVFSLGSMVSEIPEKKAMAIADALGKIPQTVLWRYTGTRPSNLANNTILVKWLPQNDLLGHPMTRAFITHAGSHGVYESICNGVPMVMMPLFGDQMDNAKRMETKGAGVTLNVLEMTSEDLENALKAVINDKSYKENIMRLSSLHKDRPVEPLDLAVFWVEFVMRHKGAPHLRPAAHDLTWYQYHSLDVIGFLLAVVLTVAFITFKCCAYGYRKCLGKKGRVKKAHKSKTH", "details": "HLMs and UGT1A1; substrate chrysoeriol; compared with control", "description": "as §1"}, "[6]": {"tested_on": "HeLa cells", "assay": "Glucuronide formation in HeLa cells (control)", "details": "HeLa cells without UGT1A9 (control)", "quoted_text": "HeLa and HeLa—UGT1A9 cells were seeded into six-well plate at a density of 1.0 × 10^5 cells/well, and were grown using Dulbecco’s modified Eagle’smedium (DMEM) supplemented with 10% fetal bovine serum (FBS). After 3 ~ 4 days of seeding, the cells can be used for the glucuronidation experiments.\nBrifely speaking, the cells were incubated at 37°C with loading solution (2 mL). […] The collected samples were mixed with 250 μL acetonitrile containing 25 nM tilianin and then analyzed by UHPLC—MS/MS after centrifugation at 13,000 rpm for 30 min. After the excretion experiment, the cells were washed and selected in 300 μL HBSS buffer, and then the cells were ultrasonicated. After centrifugation at 13,000 rpm for 30 min, the 200 μL supernatant was obtained and mixed with 100 μL acetonitrile containing 25 nM tilianin. The mixture was then centrifuged at 13,000 rpm for 30 min and prepared for subsequent UHPLC—MS/MS analysis."}, "[7]": {"details": "10 μM substrate with 5 μM Ko143, 48 h"}, "[8]": {"details": "10 μM substrate with 10 μM Ko143, 48 h"}, "[9]": {"details": "10 μM substrate with 5 or 10 μM Ko143, 48 h"}}}
{"molecule": "acacetin glucuronide", "values": [{"measurement": "Km", "setting": "[1]", "result": 14.5, "unit": "µM"}]}
{"molecule": "Cc1ccc(C(C)C)cc1O", "note": "[carvacrol]", "values": [{"measurement": "effect on formation of Chr-7-G", "setting": "[2]; substrate chrysoeriol", "result": "significantly decrease"}, {"measurement": "effect on formation of Dio-3′-G", "setting": "[2]; substrate diosmetin", "result": "significantly decrease"}]}
{"molecule": "COc1ccc(-c2cc(=O)c3c(O)cc(O)cc3o2)cc1O", "note": "[diosmetin, 5,7,3′-trihydroxy-4′-methoxyflavone]", "values": [{"measurement": "decrease of cell viability compared with substrate alone", "setting": "[3]; [7]", "result": 12, "unit": "%"}, {"measurement": "decrease of cell viability compared with substrate alone", "setting": "[3]; [8]", "result": 13, "unit": "%"}, {"measurement": "change of cytotoxicity when treated with Ko143", "setting": "[4]; [9]", "result": "little change"}]}
{"molecule": "C=CC1=C(C)/C(=C/c2[nH]c(Cc3[nH]c(/C=C4\\NC(=O)C(C)=C4C=C)c(C)c3CCC(=O)O)c(CCC(=O)O)c2C)NC1=O", "note": "[bilirubin]", "values": [{"measurement": "effect on formation of Chr-4′-G", "setting": "[5]", "result": "significantly decrease"}]}
{"molecule": "genistein glucuronides", "values": [{"measurement": "Km", "setting": "[1]", "result": 15.1, "unit": "µM"}]}
{"molecule": "COc1cc(-c2cc(=O)c3c(O)cc(O)cc3o2)ccc1O", "note": "[chrysoeriol, 5,7,4′-trihydroxy-3′-methoxyflavone]", "values": [{"measurement": "change of cytotoxicity when treated with Ko143", "setting": "[3]; [9]", "result": "little change"}, {"measurement": "glucuronided metabolites in HeLa cells", "setting": "[6]", "result": "did not find"}, {"measurement": "decrease of cell viability compared with substrate alone", "setting": "[4]; [7]", "result": 12, "unit": "%"}, {"measurement": "decrease of cell viability compared with substrate alone", "setting": "[4]; [8]", "result": 18, "unit": "%"}]}
